Reference: patent US12138254B2, “Chronic nightly dosing of lasmiditan for migraine prevention” (Eli Lilly and Company, priority 2018, dated 2024)

Tested on: dural plasma protein extravasation
Test: Trigeminal stimulation-induced dural plasma protein extravasation (PPE) in rats
Assay type: in vivo, Sprague-Dawley rats
Source text: Migraine is a painful condition thought to involve neurogenic inflammation of the dural membrane and activation of the trigeminal nervous system. The 5-HT1F receptor is widely expressed in the CNS and peripheral nerves, including the trigeminal ganglia, dorsal root ganglia and trigeminal nucleus caudalis. Plasma protein extravasation (PPE), one component of neurogenic inflammation, can be induced in the dura of rats by electrically stimulating the trigeminal ganglion. Considering the role of the trigeminal nerve in the physiology of migraine, this study is useful to characterize the ability of lasmiditan-hemisuccinate to block plasma protein extravasation in the dura of rats following electrical stimulation of the trigeminal ganglion.
To investigate the potential of lasmiditan to modify the dysfunction in the target tissue, the duration of effect following a single oral dose of lasmiditan-hemisuccinate was also determined. Electrical stimulation of the trigeminal ganglion of rats and guinea pigs can be used to induce neurogenic inflammation in the meninges (dura). Briefly, unilateral electrical stimulation of either the left or right trigeminal ganglion using electrodes implanted stereotaxically is used to induce ipsilateral neurogenic inflammation and the increased extravasation of plasma proteins.
Lasmiditan-hemisuccinate is dissolved in sterile water. All doses of lasmiditan are reported as free base equivalent doses, accounting for the weight of the salt. Envigo Sprague-Dawley, Sprague-Dawley male rats (250-350 grams, n=4/group) are fasted overnight prior to dosing. The animals are orally gavaged (2 mL/kg dose volume) with test compound or vehicle one hour prior to stimulation time and returned to their cages with only water available. Approximately 50 minutes post-dosing, the rats are anesthetized with Nembutal (65 mg/kg, ip.) and implanted with stainless steel stimulating electrodes (Rhodes Medical Systems, Inc.) to a depth of 9.2 mm. from the dura. The femoral vein is exposed and fluorescein isothiocyanate-labeled bovine serum albumin (FITC-BSA) (20 mg/kg, iv.), is injected into the femoral vein 2 minutes prior to stimulation. The FITC-BSA functions as a marker for protein extravasation. The left trigeminal ganglion is stimulated for 5 minutes at a current intensity of 1.0 mA (5 Hz, 5 msec pulse duration) with a Model S48 Grass Instrument Stimulator with PSIU6 photoelectric isolation unit (Grass-Telefactor). Five minutes following stimulation, a blood sample is collected by cardiac puncture and the rats are sacrificed by exsanguination with 40 ml of saline. One milliliter of blood is collected and placed in a 1.5 ml EDTA coated tube (Fisher Cat. #540734) on ice. Plasma is separated via centrifugation at 10,000 rpm (941 g) for thirty minutes at 4° C. The top of the skull is removed to collect the brain and dural membranes. The brain and plasma samples are frozen at −80° C. until thawed for compound quantification. The membrane samples are removed from both hemispheres, rinsed with water, and spread flat on microscope slides. The slides are dried for 15 minutes on a slide warmer, then the tissues are cover-slipped with a 70% glycerol/water solution. A fluorescence microscope (Zeiss) equipped with a grating monochromator and a spectrophotometer is used to quantify the amount of FITC-BSA dye in each dural sample. The extravasation induced by electrical stimulation of the trigeminal ganglion is an ipsilateral effect (i.e. occurs only on the side of the dura in which the trigeminal ganglion was stimulated). This allows the other (unstimulated) half of the dura to be used as the control. The ratio of extravasation in the dura from the stimulated side versus the unstimulated side is calculated and reported as the extravasation ratio for each animal. The mean extravasation ratio and standard error of the mean (SEM) are calculated for each treatment group. Controls yield a ratio of approximately 1.8. […]

2,4,6-trifluoro-N-[6-(1-methyl-piperidine-4-carbonyl)-pyridin-2-yl]-benzamide hemi-succinate salt [Lasmiditan-hemisuccinate]
inhibition of dural plasma protein extravasation vs vehicle (1 mg/kg po, 1 hour post-dose): statistically different vs vehicle | inhibition of dural plasma protein extravasation vs vehicle (10 mg/kg po, 1 hour post-dose): statistically different vs vehicle | inhibition of dural plasma protein extravasation (one hour following oral administration to rats, 0.1-10 mg/kg): dose-dependently inhibits | inhibition of dural plasma protein extravasation vs vehicle (single 10 mg/kg po, 24 hours post-dose): significantly blocks | inhibition of dural plasma protein extravasation vs vehicle (single 10 mg/kg po, 48 hours post-dose): not effective
